We go through 25 compounds from article PMC12486301 (The Journal of pharmacology and experimental therapeutics, 2025).

pIC50: −log10 of the molar value.

This experiment has as its target T1, ENT1 (Homo sapiens, UniProt Q99808).
T1 sequence (Q99808 1-456): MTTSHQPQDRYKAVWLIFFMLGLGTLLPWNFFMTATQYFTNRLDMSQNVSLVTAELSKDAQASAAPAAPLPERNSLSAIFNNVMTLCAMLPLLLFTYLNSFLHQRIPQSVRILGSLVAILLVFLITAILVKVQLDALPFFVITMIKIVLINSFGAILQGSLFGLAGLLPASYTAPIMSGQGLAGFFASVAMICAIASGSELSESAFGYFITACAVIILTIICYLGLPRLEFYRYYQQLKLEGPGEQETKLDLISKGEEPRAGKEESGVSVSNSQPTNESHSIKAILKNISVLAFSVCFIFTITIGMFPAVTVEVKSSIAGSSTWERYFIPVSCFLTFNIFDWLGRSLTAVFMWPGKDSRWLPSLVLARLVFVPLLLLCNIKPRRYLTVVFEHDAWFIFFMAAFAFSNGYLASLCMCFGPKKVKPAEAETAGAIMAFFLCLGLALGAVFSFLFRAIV
Nature of the experiment: Inhibition of [3H]uridine uptake into WT HeLa. In kind it is cell-based. As to conditions: for inhibition at 20 µM: HeLa, read-out: ENT1 % Inhibition (±SD); for ENT1 % Inhibition (±SD): model-predicted compounds from MedChem Express Drug Repurposing Library.

The inhibition is the share of the control response that was lost under treatment. With `COc1cc(/C=C/c2ccc(O)cc2)cc(OC)c1` [Pterostilbene], the inhibition at 20 µM is 54.7%.
As for `COC(=O)C1=C(C)NC(C)=C(C(=O)OC)C1c1ccccc1[N+](=O)[O-]` [Nifedipine], the inhibition at 20 µM was 72.6%.
As to `COC(=O)C1=C(C)NC(C)=C(C(=O)OC(C)C)C1c1cccc2nonc12` (centres unmarked) [Isradipine], the inhibition at 20 µM was 92.7%.
Turning to `COc1cccc(-c2nccc3[nH]c(=O)c(-c4noc(C)n4)cc23)c1` [Radequinil], the “ENT1 % Inhibition (±SD)” value (20 μM) is reported as 98.17 (0.19) %.
For `COc1cc(C(=O)c2c(C)oc3c(O)c(OC)ccc23)cc(OC)c1OC` [BNC105], the “ENT1 % Inhibition (±SD)” value (20 μM) was 97.87 (1.06) %.
`CCOc1ccc2c(-c3cccc(F)c3)nn(CC(=O)N(C)c3ccc4nc(C)oc4c3)c(=O)c2c1` [CFTR corrector 2]: the inhibition at 20 µM stood at 98%.
In the case of `CC[C@@H](C(=O)Nc1ccc(C(N)=O)c(F)c1)n1cc(OC)c(-c2cc(Cl)ccc2-n2cc(C(F)(F)F)nn2)cc1=O` [Asundexian], the “ENT1 % Inhibition (±SD)” value (20 μM) was 95.39 (0.23) %.
For `COc1cc([C@H]2Oc3cc([C@H]4Oc5cc(O)cc(O)c5C(=O)[C@@H]4O)ccc3O[C@@H]2CO)ccc1O` [Silybin A], the inhibition at 20 µM is 67.5%.
The same measure, in the same setting: to `CO[C@H]1C[C@@H]2CC[C@@H](C)[C@@](O)(O2)C(=O)C(=O)N2CCCC[C@H]2C(=O)O[C@H]([C@H](C)C[C@@H]2CC[C@@H](OCCO)[C@H](OC)C2)CC(=O)[C@H](C)/C=C(\C)[C@@H](O)[C@@H](OC)C(=O)[C@H](C)C[C@H](C)/C=C/C=C/C=C/1C` [Everolimus] belongs 92%.
For `C/C=C/c1cc(OC)c(OC)cc1OC` [alpha-Asarone], the “ENT1 % Inhibition (±SD)” value (20 μM) is on record as 52.42 (3.92) %.
For `COc1cc2c(cc1OC)-c1c/c(=N\c3c(C)cc(C)cc3C)n(CCNC(N)=O)c(=O)n1CC2` [Ensifentrine], the inhibition at 20 µM came out at 98.2%.
For `CO[C@H]1CC[C@H](n2c([C@@H]3CCCC(=O)N3c3ccc(F)c(F)c3)nc3cc(-c4c(C)noc4C)ccc32)CC1` [Inobrodib], the inhibition at 20 µM stood at 91.4%.
Consider `COc1ccc(-c2c(Cl)ncn2-c2ccc(S(N)(=O)=O)cc2)cc1F` [Cimicoxib], for which the inhibition at 20 µM was 57.3%.
The same measure, in the same setting: for `COc1cc2c(Nc3ccc(Br)cc3F)ncnc2cc1OCC1CCN(C)CC1` [Vandetanib] the value was 50.3%.
With `C#CCOc1ccc(/C=C/C(=O)Nc2ccccc2C(=O)O)cc1OC` [FT011], the “ENT1 % Inhibition (±SD)” value (20 μM) is 54.94 (2.47) %.
For `CC(=O)O[C@]1(C(C)=O)CC[C@H]2[C@@H]3C=C(C)C4=CC(=O)CC[C@@H]4[C@H]3CC[C@@]21C` [Nomegestrol acetate], the inhibition at 20 µM was found to be 82.9%.
As for `COc1cc(-c2cnc3cc(OCCN4CCOCC4)ccn23)cc2c1C(=O)N(CC(F)(F)F)CC2` [GLPG3970], the inhibition at 20 µM stood at 68.1%.
In the case of `CCn1c(=O)c2c(nc(/C=C/c3ccc(OC)c(OC)c3)n2C)n(CC)c1=O` [Istradefylline], the inhibition at 20 µM was 96.1%.
For `COc1cccc(C(=O)COc2ccc(CC3SC(=O)NC3=O)cc2)c1` (centres unmarked) [Azemiglitazone], the “ENT1 % Inhibition (±SD)” value (20 μM) is 74.95 (4.00) %.
By pIC50 is commonly meant the negative decadic logarithm of the IC50, by convention in mol/L. In the case of `COc1cc(O)cc(O)c1C(=O)c1ccccc1` [isocotoin], under “20 μM, Spectrum Collection screen (Table S1)”, the “ENT1 inhibition of uridine uptake (Spectrum screen, text)” value is reported as ~ 65%. The pIC50 (read-out: predicted IC50 for ENT1, predicted from inhibition at 20 μM) is 4.92.
`COc1cccc(-c2cc(F)c(Nc3ncccc3C(=O)O)c(F)c2)c1` [Farudodstat]: the inhibition at 20 µM came to 86.8%.
Regarding `Cc1c(OCC(F)(F)F)ccnc1C[S@@+]([O-])c1nc2ccccc2[nH]1` [(R)-Lansoprazole], the inhibition at 20 µM is 73.6%.
In the case of `Oc1ccc(C2=Cc3ccc(O)cc3OC2)cc1` [Phenoxodiol], the inhibition at 20 µM was 69.3%.
As to `CCn1cnc2c(-c3ccc(F)c(-c4ccc(S(=O)(=O)CC)cc4OC)c3)cnnc21` [PF-06372865], for the setting “20 μM”, the “ENT1 % Inhibition (±SD)” value is recorded as 100.45 (0.02) %.
In the case of `Cc1cccc(-c2nn3c(c2-c2ccnc4ccc(C(N)=O)cc24)CCC3)n1` [Galunisertib], the inhibition at 20 µM amounted to 56.2%.
